Reference: patent US7897563B2, “Use of oligomers and polymers for drug solubilization, stabilization, and delivery” (Soane Family Trust, priority 2001, dated 2011)

Columns and labels:
[1] = octanol/water, nominal temperature of 25 C; from table in CRC Handbook of Chemistry and Physics; cited from earlier work
[2] = Procedure: Log P values measure the partitioning of a molecule between an octanol-rich and a water-rich layer in contact with one another (see CRC Handbook of Chemistry and Physics, 79th edition, Lide, ed., pp. 16-42-16-46, CRC Press, 1998; and references within, all of which are incorporated herein by reference). Log P values are measured at a nominal temperature of 25 C. More preferably, hydrophobic means having a log P value greater than about 0.5, even more preferably a log P value greater than about 1, even more preferably a log P value greater than about 1.5, and most preferably a log P value greater than about 2.

log P (estimate from a similar small molecule) [2] | Compound | log P [1]
 | CCCCOC(C)=O [butyl acetate] | 1.82
approximately 0.2 | poly(lactic acid) | 
